Source: publication PMC9492542, “Brain-restricted mTOR inhibition with binary pharmacology” (Nature, 2022)
Several values for one entry are separate records, joined by “and”; a condition that tells them apart may be missing. Equal entries are not always repeated. Where two headings read alike, the source gives them in different places.

What was measured:
FKBP12 = molecular target: T1, FKBP12 (Homo sapiens, UniProt P62942); test: Competition fluorescence polarization assay with FITC-rapamycin tracer; format: binding
T1 construct: His-tag (HRV 3C cleavable) (cleaved yes); made in house; host or cells: Escherichia coli BL21(DE3)
T1 sequence (P62942 whole entry): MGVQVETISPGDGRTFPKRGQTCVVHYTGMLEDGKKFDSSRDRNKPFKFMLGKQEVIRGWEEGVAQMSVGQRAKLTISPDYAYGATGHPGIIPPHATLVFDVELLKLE
Experimental: Compound binding affinity was determined using a competition fluorescence polarization assay. […] The assay buffer was 20 mM HEPES pH 7.5 and 0.01% Triton X-100. […] Data were fitted to a three-parameter sigmoidal curve to derive IC50 values. Ki of the compounds were calculated using a tool provided by S. Wang’s laboratory (http://www.umich.edu/~shaomengwanglab/software/calc_ki/index.html). Data were plotted in GraphPad Prism 9.0.

mTOR [1] = test: Immunoblot analysis of mTOR signalling (p-S6, p-4EBP1) in MCF7 cells, incl. screen for blocking of rapamycin/RapaLink-1; conditions: for blocking of mTOR inhibition by RapaLink-1 in cells: 10 nM RapaLink-1 + 10 µM blocker, immunoblot
mTOR [2] = test: mTOR signalling in mouse whole brain and skeletal muscle after single i.p. dose (immunoblot, insulin stimulated); format: in vivo; conditions: for p-4EBP1 Brain, fold relative to no insulin, normalized to GAPDH / p-4EBP1 Muscle, fold relative to no insulin, normalized to GAPDH / p-RPS6 Brain, fold relative to no insulin, normalized to GAPDH / p-RPS6 Muscle, fold relative to no insulin, normalized to GAPDH: RL1 1 mg/kg, RB 40 mg/kg, insulin 250 mU, listed as RB
Experimental: Whole brain and skeletal muscle were analyzed by immunoblot.

U87MG = test: Orthotopic intracranial U87MG-luciferase glioblastoma xenograft
NFAT = NFAT activation assay (Jurkat-Lucia NFAT luciferase reporter, PMA/ionomycin); format: cell-based
Experimental: Jurkat-Lucia NFAT cells were resuspended to 2 × 10^6 cells per ml in fresh growth medium and dispensed in 96-well tissue culture plates (Corning 3904; 180 µl per well). DMSO solutions of test compounds at 100× the test concentrations were added and the cells were incubated for 4 h at 37 °C. A 10× stimulation solution containing phorbol myristate acetate (100 ng ml^–1) and ionomycin (10 µg ml^–1) were added to each well (20 µl per well) except for the negative control wells, which were supplemented with 20 µl medium. Cells were incubated at 37 °C for 12 h. Cells (20 µl per well) were transferred into a white opaque 96-well plate (Corning 3912). TECAN Spark 20M plate reader equipped with an auto-injection system was primed with Lucia luciferase substrate solution and set with the following parameters: 50 µl of injection volume, end-point measurement with a 4-s delay time and 0.1-s integration time. Luciferase activity was measured with the settings above and normalized to DMSO-treated, stimulated cells. Data were plotted in GraphPad Prism 9.0.

human PBMCs = test: Proliferation of anti-CD3/anti-CD28 stimulated PBMCs (120 h); format: cell-based
GBM43 = test: Orthotopic intracranial GBM43-luciferase patient-derived glioblastoma xenograft; conditions: GBM43-Luc
[3] = U87MG-Luc, day 0, individual mice
[4] = U87MG-Luc, day 5, individual mice
[5] = U87MG-Luc, day 10, individual mice
[6] = U87MG-Luc, day 15, individual mice
[7] = U87MG-Luc, day 20, individual mice

CCON=C1C[C@H](O)[C@@H](C)[C@@H](/C(C)=C/[C@@H]2CC[C@@H](O)[C@H](OC)C2)OC(=O)[C@@H]2CCCCN2C(=O)C(=O)[C@]2(O)O[C@H]([C@@H](OC)C[C@@H](C)C/C(C)=C/[C@H]1CCCc1cccc[n+]1[O-])[C@@H](OC)C[C@H]2C [RapaBlock ethyl oxime]
Ki (FKBP12): 360 nM
blocking of mTOR inhibition by RapaLink-1 in cells (mTOR [1]): less potent at blocking RapaLink-1
blocking of mTOR inhibition by RapaLink-1 in cells (mTOR [1]; listed as RapaBlock-Oxime): much less effective at blocking the inhibition

CO[C@H]1C[C@@H](C)C/C(C)=C/[C@@H](CCCc2cccc[n+]2[O-])C(=O)C[C@H](O)[C@@H](C)[C@@H](/C(C)=C/[C@@H]2CC[C@@H](O)[C@H](OC)C2)OC(=O)[C@@H]2CCCCN2C(=O)C(=O)[C@]2(O)O[C@H]1[C@@H](OC)C[C@H]2C [RapaBlock]
fluorescence polarization (competition, raw) (FKBP12; 0.0976562 nM compound): 114 and 112
fluorescence polarization (competition, raw) (FKBP12; 0.195312 nM compound): 114 and 112
fluorescence polarization (competition, raw) (FKBP12; 0.390625 nM compound): 112 and 110
fluorescence polarization (competition, raw) (FKBP12; 0.78125 nM compound): 110 and 109
fluorescence polarization (competition, raw) (FKBP12; 1.5625 nM compound): 109
fluorescence polarization (competition, raw) (FKBP12; 3.125 nM compound): 100 and 104
fluorescence polarization (competition, raw) (FKBP12; 6.25 nM compound): 86 and 88
fluorescence polarization (competition, raw) (FKBP12; 12.5 nM compound): 74
fluorescence polarization (competition, raw) (FKBP12; 25 nM compound): 64 and 62
fluorescence polarization (competition, raw) (FKBP12; 50 nM compound): 56 and 58
fluorescence polarization (competition, raw) (FKBP12; 100 nM compound): 46 and 55
Ki (FKBP12; Extended Data Fig. 4b, n = 3, read-out: Ki(FKBP12)): 1.4 nM
Ki (FKBP12; Fig. 2d, fluorescein-labelled rapamycin tracer, read-out: FKBP12 Ki): 3.1 nM
Kd (FKBP12; measured in-house in a single fluorescence polarization experiment, read-out: Kd3 (RapaBlock binding to FKBP)): 2.5 nM
Kd (FKBP12; recombinant FKBP12, Extended Data Fig. 2, read-out: Kd (FKBP12)): 1.6 nM
p-4EBP1 Brain, fold relative to no insulin, normalized to GAPDH (mTOR [2]; 4h): 1.83 and 2 and 1.39
p-4EBP1 Muscle, fold relative to no insulin, normalized to GAPDH (mTOR [2]; 4h): 1.7 and 2.09 and 1.93
p-RPS6 Brain, fold relative to no insulin, normalized to GAPDH (mTOR [2]; 4h): 1.92 and 2.13 and 3
p-RPS6 Muscle, fold relative to no insulin, normalized to GAPDH (mTOR [2]; 4h): 2.39 and 2.47 and 2.32
p-4EBP1 Brain, fold relative to no insulin, normalized to GAPDH (mTOR [2]; 24h): 1.46 and 1.83 and 1.26
p-4EBP1 Muscle, fold relative to no insulin, normalized to GAPDH (mTOR [2]; 24h): 2.04 and 2.08 and 2.19
p-RPS6 Brain, fold relative to no insulin, normalized to GAPDH (mTOR [2]; 24h): 1.78 and 1.76 and 3.3
p-RPS6 Muscle, fold relative to no insulin, normalized to GAPDH (mTOR [2]; 24h): 3.51 and 2.13 and 2.07
tissue-specific protection from RapaLink-1 (in vivo screen) (mTOR [2]; RapaLink-1 1 mg per kg + candidate 40 mg per kg): protected peripheral tissues from RapaLink-1 but allowed potent inhibition of mTOR in the brain
tumour growth and survival (U87MG; RapaLink-1 1 mg per kg, RapaBlock 40 mg per kg, i.p. every 5 days): no significant effect on either
Mouse weight (U87MG; [3]): 23.7 g and 18.4 g and 20.5 g and 22.9 g and 23.2 g and 19.4 g
Tumor size (measured by bioluminescence) (U87MG; [3]): 17700000 and 2260000 and 10400000 and 10700000 and 2010000 and 11600000
Mouse weight (U87MG; [4]): 25.1 g and 20.4 g and 22.3 g and 25.2 g and 24.1 g and 21.1 g
Tumor size (measured by bioluminescence) (U87MG; [4]): 43100000 and 13000000 and 366000 and 28000000 and 11500000 and 3180000
Mouse weight (U87MG; [5]): 24.6 g and 21.1 g and 22.5 g and 25.3 g and 23.8 g and 21.3 g
Tumor size (measured by bioluminescence) (U87MG; [5]): 1970000 and 19800000 and 27300000 and 73500000 and 25400000 and 8750000
Mouse weight (U87MG; [6]): 24.4 g and 21.8 g and 23 g (2×) and 25 g and 21.9 g
Tumor size (measured by bioluminescence) (U87MG; [6]): 1140000000 and 112000000 and 171000000 and 820000000 and 161000000 and 1140000
Mouse weight (U87MG; [7]): 19.5 g and 24.1 g and 23.9 g and 23.1 g
Tumor size (measured by bioluminescence) (U87MG; [7]): 6750000000 and 1500000000 and 1360000000 and 47000000 and 739000000
Mouse survival (U87MG; U87MG-Luc, individual mice): 25 days and 21 days and 28 days and 23 days
blocking of rapamycin (phospho-S6 signal) (mTOR [1]; MCF7, 100:1 stoichiometry RapaBlock:rapamycin): restoring the phospho-S6 signal to the same level as untreated cells
attenuation of RapaLink-1 effects on mTOR signalling (mTOR [1]; MCF7, 4 h, with 10 nM RapaLink-1): attenuates the pharmacological effects of RapaLink-1 in a dose-dependent manner
effect on mTOR signalling by itself (mTOR [1]; cultured cells, up to 10 µM): does not affect mTOR signalling by itself
NFAT luciferase activity, normalized to DMSO-treated stimulated cells (NFAT; 0.00512 nM): 93 and 91.3 and 97
NFAT luciferase activity, normalized to DMSO-treated stimulated cells (NFAT; 0.0256 nM): 97.8 and 104.3 and 98.9
NFAT luciferase activity, normalized to DMSO-treated stimulated cells (NFAT; 0.128 nM): 95.3 and 89 and 97
NFAT luciferase activity, normalized to DMSO-treated stimulated cells (NFAT; 0.64 nM): 97.6 and 92.3 and 99.2
NFAT luciferase activity, normalized to DMSO-treated stimulated cells (NFAT; 16 nM): 100.2 and 101.6 and 105.7
NFAT luciferase activity, normalized to DMSO-treated stimulated cells (NFAT; 80 nM): 104.1 and 109.3 and 105.3
NFAT luciferase activity, normalized to DMSO-treated stimulated cells (NFAT; 400 nM): 109.4 and 107.4 and 106.7
NFAT luciferase activity, normalized to DMSO-treated stimulated cells (NFAT; 2000 nM): 112.3 and 110 and 113.9
NFAT luciferase activity, normalized to DMSO-treated stimulated cells (NFAT; 10000 nM): 112 and 113.2 and 110.3
inhibitory activity for calcineurin (NFAT; Fig. 2e): does not exhibit any inhibitory activity for calcineurin
IC50 (NFAT; Homo sapiens, Jurkat NFAT luciferase, PMA + ionomycin): > 10000 nM
shift of RapaLink-1 IC50 for PBMC proliferation by addition of RapaBlock (human PBMCs; 5 days): more than 100 fold
protection of PBMCs from rapamycin-mediated growth inhibition (human PBMCs; compared with protection from RapaLink-1): appeared more effective at protecting PBMCs from rapamycin-mediated growth inhibition
relative proliferation compared to DMSO-treated cells (human PBMCs; constant 10 µM RapaBlock, low RapaLink-1/rapamycin concentrations): ~ 100%
Mouse weight (GBM43; day 0, individual mice): 22.5 g and 18.4 g and 23.4 g and 24.1 g and 22.4 g and 24.3 g
Tumor size (measured by bioluminescence) (GBM43; day 0, individual mice): 545000 and 240000 and 88600 and 6780000 and 3240000 and 1560000
Mouse weight (GBM43; day 4, individual mice): 22.5 g and 20 g and 24 g and 25.1 g and 23.3 g and 25 g
Tumor size (measured by bioluminescence) (GBM43; day 4, individual mice): 550000 and 781000 and 188000 and 20000000 and 920000 and 2990000
Mouse weight (GBM43; day 7, individual mice): 22 g and 20 g and 25 g (2×) and 23.4 g and 25.8 g
Tumor size (measured by bioluminescence) (GBM43; day 7, individual mice): 42300000 and 19300000 and 2230000 and 1130000000 and 47100000 and 178000000
Mouse weight (GBM43; day 10, individual mice): 21.7 g and 19.6 g and 24.5 g and 24.8 g (2×) and 22.7 g
Tumor size (measured by bioluminescence) (GBM43; day 10, individual mice): 782000000 and 3210000 and 104000000 and 3810000000 and 1590000000 and 1220000000
Mouse survival (GBM43; individual mice): 16 days and 17 days and 18 days
